PubChem BioAssay (NCI)
Where “and” joins values, the source holds several entries; their conditions need not be identical. Equal entries are not always repeated.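 Interpolation was linear, between the two tested concentrations surrounding the appropriate level; five concentrations were tested over 48 hours in 96-well plates. The concentration for 50% growth inhibition is given as GI50. At the TGI there is no net growth.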

Tests used:
Assay in all cases: NCI-60 cell line screen, 48 h
ACHN renal = test system: ACHN renal
HL-60(TB) leukemia = test system: HL-60(TB) leukemia
HOP-92 NSCLC = test system: HOP-92 NSCLC
HT29 colon = test system: HT29 colon
IGROV1 ovarian = test system: IGROV1 ovarian
NCI-H23 lung = test system: NCI-H23 lung
RXF 393 renal = test system: RXF 393 renal
SK-MEL-2 melanoma = test system: SK-MEL-2 melanoma
SNB-19 CNS = test system: SNB-19 CNS
U251 CNS = test system: U251 CNS

Row | Structure (SMILES) | TGI (ACHN renal) | TGI (HL-60(TB) leukemia) | TGI (HOP-92 NSCLC) | TGI (HT29 colon) | TGI (IGROV1 ovarian) | TGI (NCI-H23 lung) | TGI (RXF 393 renal) | TGI (SK-MEL-2 melanoma) | TGI (SNB-19 CNS) | TGI (U251 CNS) | GI50 (RXF 393 renal) | GI50 (HL-60(TB) leukemia) | GI50 (HOP-92 NSCLC) | GI50 (HT29 colon) | GI50 (IGROV1 ovarian) | GI50 (NCI-H23 lung) | GI50 (SK-MEL-2 melanoma) | GI50 (SNB-19 CNS) | GI50 (U251 CNS) | GI50 (ACHN renal)
1 | C/C=C/[P+](c1ccccc1)(c1ccccc1)c1ccccc1 | 62.5 µM | 2.78 µM | 6.81 µM | 12.9 µM | 18.1 µM | 14.3 µM | 41.6 µM | 29.1 µM | 15 µM | 15.1 µM |  |  |  |  |  |  |  |  |  | 
2 | CN(C)c1ccc(/C=N\NC(=O)CSCC(=O)N/N=C/c2ccc(N(C)C)cc2)cc1 | > 100 µM | > 100 µM | > 100 µM | > 100 µM | > 100 µM | > 100 µM | 81.5 µM | > 100 µM | > 100 µM | > 100 µM |  |  |  |  |  |  |  |  |  | 
3 | O=c1ccc2cc(O)c(O)cc2o1 | > 100 µM | > 100 µM | > 100 µM | > 100 µM | > 100 µM | > 100 µM | > 100 µM | > 100 µM | > 100 µM | > 100 µM |  |  |  |  |  |  |  |  |  | 
4 | NC(=O)CCCC(NCc1c2ccccc2nc2ccccc12)C(=O)O (stereo unspecified) | > 100 µM | 62.2 µM | 85.7 µM | > 100 µM | > 100 µM | > 100 µM | > 100 µM | > 100 µM |  | > 100 µM |  |  |  |  |  |  |  |  |  | 
5 | O=c1oc2ccccc2c2c(=O)c3ccc(OC/C(=N/O)c4ccc(Cl)cc4)cc3oc12 | 19.2 µM | 28.4 µM | 25.1 µM |  | > 100 µM | 45.1 µM | 8.06 µM | 24.1 µM | 33.1 µM | 23.3 µM |  |  |  |  |  |  |  |  |  | 
6 | CN(C)CCNc1nc(-c2ccc3ccccc3c2)nc2nc[nH]c12 | 11.9 µM | > 100 µM |  | 16.4 µM | 15.4 µM | 23.9 µM | 24.2 µM | 28.1 µM | 28.1 µM | 31 µM |  |  |  |  |  |  |  |  |  | 
7 | NC(N)=N/N=C/c1c(-c2ccccc2)nc2n1ccc1nc(-c3ccccc3)c(/C=N/N=C(N)N)n12 | > 100 µM | > 100 µM | > 100 µM | > 100 µM | 92.7 µM | > 100 µM | > 100 µM | > 100 µM | > 100 µM | > 100 µM |  |  |  |  |  |  |  |  |  | 
8 | Cc1ccc(S(=O)(=O)NCCSCCNS(=O)(=O)c2ccc(C)cc2)cc1 | > 100 µM |  | > 100 µM | > 100 µM |  | > 100 µM | > 100 µM |  | > 100 µM | > 100 µM |  |  |  |  |  |  |  |  |  | 
9 | O=S(=O)(Sc1ccc(Cl)cc1)c1ccc(Cl)cc1 | 31.2 µM | 33 µM | 42.1 µM | 35 µM | 31.1 µM | 30.5 µM | 30.1 µM | 14.5 µM | 65 µM | 22.3 µM |  |  |  |  |  |  |  |  |  | 
10 | CC(=O)Nc1ccccc1SCCSSCCSc1ccccc1NC(C)=O | 39.1 µM | 44.8 µM | 64.4 µM | 76.8 µM | 46.8 µM | 83.9 µM | > 100 µM | 86.5 µM | 36.7 µM | 70.2 µM |  |  |  |  |  |  |  |  |  | 
11 | CC(=O)C(O)N1C(=O)C=CC1=O (stereo unspecified) |  |  |  |  |  |  |  |  |  |  | 13000 µM |  |  |  |  |  |  |  |  | 
12 | CC1=NN(c2ccccc2)C(=O)/C1=C/c1ccc(O)cc1 | > 100 µM | > 100 µM | > 100 µM | > 100 µM | > 100 µM | > 100 µM | > 100 µM | > 100 µM | > 100 µM | > 100 µM |  |  |  |  |  |  |  |  |  | 
13 | CCCCCCCSc1nc2c(C(=O)OCC)ncn2c2ccccc12 | > 100 µM | > 100 µM | > 100 µM | > 100 µM | > 100 µM | > 100 µM | > 100 µM | > 100 µM |  | > 100 µM |  |  |  |  |  |  |  |  |  | 
14 | CC1=C2C(=O)c3ccccc3C(=O)[C@H]2[C@H]2CCO[C@H]2O1 | 45.5 µM | 61.1 µM | 42.3 µM | 95.2 µM | 31.1 µM | 45.6 µM | 31.3 µM | 36.6 µM | > 100 µM | 59.3 µM |  |  |  |  |  |  |  |  |  | 
15 | CCCCCCNC(=O)c1cnc(Cl)cn1 | 8.49 µM | 47.8 µM | > 100 µM | > 100 µM | 22.8 µM | 23.5 µM |  | 31 µM | 43.7 µM | 23.6 µM |  |  |  |  |  |  |  |  |  | 
16 | Cc1c2cc[n+](CCN3CCCCC3)cc2c(C)c2c1[nH]c1ccc(O)cc12 | 22.9 µM | 26.5 µM and > 40.4 µM | 46.6 µM and 42 µM | 28 µM and 47.4 µM | 38.1 µM and 30.4 µM | 53.1 µM and 27.7 µM | 23.6 µM and 16 µM | 35.5 µM and 36.3 µM | 10.2 µM and 29.1 µM | 10.6 µM and 10.4 µM | 3.09 µM | 3.67 µM | 4.34 µM | 4.67 µM | 4.43 µM | 2.6 µM | 13.5 µM | 1.96 µM | 1.7 µM | 
17 | O=C1c2c(c3c4ccccc4[nH]c3c3ccc4ccccc4c23)C(=O)N1CCN1CCCCC1 | 2.26 µM | 3.31 µM | 38.8 µM | 10.6 µM | 4.29 µM | 9.79 µM | 3.01 µM | 5.36 µM | 46.4 µM | 7.51 µM | 1.47 µM | 1.07 µM | 2.67 µM | 1.72 µM | 1.25 µM | 0.741 µM | 2.25 µM | 0.94 µM | 1.05 µM | 0.335 µM
18 | CC1C(O)C2(Oc3cc4c(c5c3[C@@H](CC5O)[C@H]2C)CCC2Cc3nc5c(nc3C[C@@]42C)CC2CCC3C4=C[C@H]6O[C@@]7(O[C@@](C)(CO)C[C@@H]7O)C(C)[C@@]6(O)[C@]4(C)[C@@H](O)CC3[C@]2(C)C5)OC1(C)C (stereo partly specified) |  | 0.177 µM | > 3.67 µM | 0.456 µM | 0.894 µM | 0.654 µM | 0.19 µM | 0.611 µM |  | 0.114 µM |  |  |  |  |  |  |  |  |  | 
19 | COc1ccc(-c2c3c(nc4nc(SCCc5ccccc5)nc(N)c24)CCCC3)cc1OC | > 100 µM | > 100 µM |  | > 100 µM | > 100 µM | > 100 µM | > 100 µM |  | > 100 µM | > 100 µM |  |  |  |  |  |  |  |  |  | 
20 | CC12CCC(C(=O)OC1=O)C(C)(C)O2 (stereo unspecified) | > 100 µM |  | > 100 µM | > 100 µM | > 100 µM | > 100 µM | > 100 µM | > 100 µM | > 100 µM | > 100 µM |  |  |  |  |  |  |  |  |  | 
21 | CN(C)CCCNc1ccc2ncn3c4ccccc4c(=O)c1c23 | 52.5 µM | 21.2 µM | 59.5 µM | 19.6 µM | 33 µM | 29 µM |  | 26.8 µM | > 100 µM | > 100 µM |  |  |  |  |  |  |  |  |  | 
22 | COc1ccc([C@@H]2ON(C)[C@H]3CN(C)C(=O)[C@@H]23)cc1 | > 100 µM | > 100 µM | > 100 µM | > 100 µM | > 100 µM | > 100 µM |  | > 100 µM | > 100 µM | > 100 µM |  |  |  |  |  |  |  |  |  | 
23 | CCOC(=O)/C(Cl)=C(\C)Nc1nc2c(ccc3ccccc32)s1 | > 100 µM | > 100 µM |  | > 100 µM | > 100 µM | > 100 µM |  | 60.1 µM | > 100 µM | > 100 µM |  |  |  |  |  |  |  |  |  | 
24 | CN1CCCCC1CCN1CCCCC1 (stereo unspecified) | > 100 µM | > 100 µM | > 100 µM | > 100 µM | > 100 µM | > 100 µM | > 100 µM | > 100 µM | > 100 µM | > 100 µM |  |  |  |  |  |  |  |  |  | 
25 | NC(=O)NN=C(CS)CS |  | 2.52 µM | 38.6 µM | > 100 µM | > 100 µM | 52.4 µM | > 74.4 µM | 45.1 µM | 52.3 µM | 43.6 µM |  |  |  |  |  |  |  |  |  | 
26 | Cc1cc(NCc2cc(Nc3ccnc4cc(Cl)ccc34)ccc2F)nc(N2CCCC2)n1 |  |  | 2.61 µM | 2.27 µM | 4.2 µM | 4.68 µM | 2.99 µM |  | 10.1 µM | 3.32 µM | 1.45 µM |  | 0.763 µM | 0.877 µM | 1.69 µM | 1.83 µM |  | 2.82 µM | 1.73 µM | 
27 | O=NC1C(Cl)C2CC1C1C(Br)C(Br)CC21 (stereo unspecified) | > 100 µM | > 100 µM | > 100 µM | > 100 µM | > 100 µM | > 100 µM | > 100 µM | > 100 µM | > 100 µM | > 100 µM |  |  |  |  |  |  |  |  |  | 
